The text below walks through data of article PMC7824033, “Flavones, Flavonols, and Glycosylated Derivatives—Impact on Candida albicans Growth and Virulence, Expression of CDR1 and ERG11, Cytotoxicity” (Pharmaceuticals, 2020).

One assay concerns ERG11. Briefly: Expression of ERG11 (qPCR). The assay is classed as cell-based, Candida albicans. Conditions: treatment with MIC. Here is the method: Total RNA was isolated as described by Sanglard et al. with some modifications. C. albicans 475/15 was grown with agitation at 30 °C in YEPD until OD540 = 0.4. C. albicans cells were incubated with MIC of compounds in YEPD at 30 °C with agitation for 30 min. Cells were centrifuged (4600 rpm, 4 °C for 5 min (Rotanata 460 R, Hettich, Tuttlingen, Germany)) and the pellet was resuspended in 300 µL of RNA buffer (0.1 M Tris-HCl pH 7.5, 0.1M LiCl, 10mM EDTA, 0.5% SDS). The pellet was homogenized with 200 µL of DEPC treated glass beads and 300 µL of Phenol:Chloroform:Isoamyl Alcohol (Sigma-Aldrich, Darmstadt, Germany) in Precellys Evolution tissue homogenizer (Bertion instruments, Montigny-le-Bretonneux, France) at 4500 rpm for 5 s. After centrifugation (14,000 rpm, 4 °C, 1 min (Universal 32 R, Hettich, Tuttlingen, Germany)) 200 µL of supernatant was vortexed with 250 µL of Phenol:Chloroform:Isoamyl Alcohol for 10 s. Samples were centrifuged (14,000 rpm, 4 °C, 1 min) and 200 µL of supernatant was transferred to new tubes, 400 µL of ice-cold 99% ethanol was added to each tube, and they were kept on dry ice for 10 min. Samples were centrifuged (14,000 rpm, 4 °C, 2 min), pellet was washed with ethanol (70%), left to dry at room temperature, after which it was dissolved in 50 µL of DEPC treated water. Nanodrop (ND-1000, Witec AG, Sursee, Switzerland) was used for determination of concentration and purity of samples. RNA was stored at −80°C.
Amount of 10 µg RNA was incubated with 5 µL of DNAse buffer and 1 µL of DNAse at 37 °C for 30 min (DNA-free™ DNA Removal Kit, Ambion, Bleiswijk, Netherlands). After addition of DNAse inactivation reagent tubes were kept at room temperature with occasional vortexing for 5 min. Samples were centrifuged (14,000 rpm, 4°C, 2 min) and the concentration and quality of supernatant were analyzed on Nanodrop (ND-1000, Witec AG, Sursee, Switzerland).
Synthesis of cDNA was done with a Transcriptor High Fidelity cDNA synthesis kit (Roche). RNA (1 µg) was incubated with 60 µM random hexamer primers, in 11.4 µL of total sample volume, at 65 °C for 10 min. The mixture of Transcriptase reaction buffer 5×, Deoxynucleotide mix, DTT, Protector RNAse inhibitor, and Transcriptor High Fidelity Reverse Transcriptase was added to each tube according to manufacturer instructions. Synthesis of cDNA was completed by incubating the mixture at 50 °C for 30 min and 85 °C for 5 min (Peqstar thermocycler, Peqlab, Erlangen, Germany).
Wells of MicroAmp Fast 96-Well Reaction plate ((0.1 mL), Applied biosystems, Waltham, MA, USA) were incubated with 10 µL of mixture (cDNA, 2× MasterMix, primers, probe (Table 3), and water). Analysis was performed in StepOnePlus Real Time PCR system with relative standard curve method. Expression levels of CDR1 and ERG11 were normalized to expression of ACT1.
On the technique in general: Quantitative PCR measures a nucleic acid by following its amplification.

The next assay deals with S. aureus efflux. Further details: method as in PMID 25961825. To be noted: S. aureus; cited from earlier work.
The next assay relates to CDR1. Briefly: Expression of CDR1 (qPCR). It counts as cell-based, Candida albicans. Conditions: treatment with MIC.
Assay [1] deals with C. albicans morphological transition. To be noted: cited from earlier work.

Molecules are shown by their SMILES. Converted amounts (≈) assume the structure as drawn. “Also recorded” adds a separate entry of the source. Where two headings read alike, the source gives them in different places.

Take `O=c1c(O[C@@H]2O[C@H](CO)[C@@H](O)[C@H](O)[C@H]2O)c(-c2ccc(O)c(O)c2)oc2cc(O)cc(O)c12` [Isoquercitrin, isoquercitrin]: the entries for the “impact on ERG11 expression (words)” value in the assay on ERG11 and with ERG11 (listed as isoquercitrin) were “increased expression levels” and “upregulated; also recorded: increased ERG11 expression”, respectively. Also, in the assay with ERG11 (30 min, normalized to ACT1), the “ERG11 expression level, Log2FC” value is above 1 Log2FC.

On to `O=c1c(O)c(-c2ccc(O)c(O)c2)oc2cc(O)cc(O)c12` [Quercetin, quercetin], for which, in the assay with S. aureus efflux, the “IC50, efflux inhibition” value is on record as 75 µg/mL (≈ 248 µM). Further, in the assay on CDR1, the “impact on CDR1 expression” value is recorded as “did not exhibit any significant inhibitory potential”. Moreover, the entries for the “concentration leading to reduction of morphological transition” value in assay [1] (ref 18) and in assay [1] (ref 28) were 64 µg/mL and “up to 200 µg/mL”, respectively.
